9 compounds from patent publication US9868690B2, “Prodrugs of monomethyl fumarate (MMF)” (RATIOPHARM GMBH, priority 2013, dated 2018) can be followed below.

Where a name gives a salt, the structure may show the parent alone.

The nature of this series: Kinetic of MMF-release during incubation in intestinal fluid from the minipig. The format is in vitro ADME, Göttingen SPF minipig. The following applies: incubation in minipig small intestinal fluid diluted 1/20 v/v with 50 mM KH2PO4, pH 6.8, 37° C., samples 0-120 min (up to 1,320 min); reference DMF. The protocol:
Investigation and Comparison of the Kinetic of MMF-Release of the Different Compounds of the Present Invention and DMF During Incubation in Intestinal Fluid from the Minipig
Intestinal fluid samples were prepared at CiToxLAB Scantox A/S. The samples were taken from 1 female Göttingen SPF minipig from CiToxLAB Scantox A/S standard stock, originally obtained from Ellegaard Göttingen Minipigs A/S, DK-4261 Dalmose, Denmark. The minipig was 10 months old and the body weight was 21 kg. The minipig was identified by an individual number tagged to the pinna of one ear (animal number is documented in the raw data).
The minipig was fasted for approximately 28 hours before sampling of intestinal fluid. On the day of sampling, the minipig was weighed and anaesthetised by an intramuscular injection in the neck or in the left hind leg (about 0.3 ml per kg body weight) of a mixture of Zoletil 50 Vet., Virbac, France (125 mg tiletamine and 125 mg zolazepam), Rompun Vet., Bayer, Germany (20 mg xylazine/ml, 6.5 ml), Ketaminol Vet., Veterinaria AG, Switzerland (100 mg ketamine/ml, 1.5 ml) and Methadon DAK, Nycomed Danmark, Denmark (10 mg methadon/ml, 2.5 ml).
Intestinal fluid was obtained by flushing one jejunal segment, measuring 30.2 cm, with saline. Intestinal fluid together with saline used for flushing was placed in centrifuge tubes. All samples were frozen at −70° C. and shipped on dry ice to the Sponsor for further use.
• Instrument: Acquity UPLC system coupled with a TQ detector (triple quadruple mass spectrometer) UPLC Method: • Column: Phenomenex Kinetex C18, 100 A, 2.6 μm (150×4.6 mm) • flow: 0.4 ml/min • split: appr. 100 μl/min to MS • temperature 30° C. • solvent system (isocratic): • Solvent A 25% water with 0.1% acetic acid • Solvent B 75% methanol with 0.1% acetic acid • stoptime: 6 min • autosampler temperature: 8° C. • injection volume: 4 μl • retention time: MMF: 4.3 min • MEF: 4.7 min Mass Spectrometry • software: Masslynx 4.1 • detection mode: electrospray/negative ions (ESP−) • capillary voltage: 2.3 kV • source temperature: 100° C. • desolvation temperature: 450° C. • cone voltage: 18 V • desolvation gas: N2, 650 L/h • cone gas: N2, 20 L/h • collision gas: argon, appr. 3.3*10^−3 mbar • collision energy: 11 eV • MRM [m/z]: 128.94>85.03 Monomethylfumarate dwell:200 msec • 142.99>99.06 Monoethylfumarate (ISTD) dwell:200 msec 2.1.2. Stock and Calibration Solutions
Calibration solutions were prepared by serial dilution of SSMMF; diluted small intestinal fluid (diluted by 1/20 v/v with 50 mM KH2PO4, pH 6.8; (dil IF) was used as matrix. The dilution scheme is given below:
50 μl sample (calibration solution or sample of an incubation experiment with MMF prodrugs) was mixed with 50 μl WSISTD, 20 μl formic acid and 100 μl acetonitrile. This mixture was vortexed for 15 sec and centrifuged (13,000 rpm, 3 min). Thereafter, 4 μl of the supernatant were subjected to LC-MS analysis.
2.2. Incubation Experiments with DMF (Reference) and Compounds of the Invention
Stock solutions were prepared in DMSO or in DMSO with 10% (v/v) with water. Concentrations in stock solutions were 5.00, 2.50 and 1.67 mmol for compounds with one, two and three molar MMF equivalents.
In a HPLC glass vial, 8 μl of stock solution were mixed with 792 μl dil IF and the mixture was stirred (250 rpm) in a water bath (T=37° C.).
Immediately after mixing as well as at t=15 min, 30 min, 60 min, 90 min and 120 min, 50 μl were withdrawn and prepared for LC-MS analysis as described in chapter. 2.1.3.
Incubations were continued and in case the result of analysis of the 120 min indicated the presence of remaining intact MMF-prodrug, additional samples were taken (t=360 or 420 min and at 1,260 or 1,320 min) and analysed.
The concentration/peak area ratio data pairs were subjected to regression analysis with 1/x weighting and the resulting calibration equation was used to quantify the MMF content in incubation samples.
For the compound `COC(=O)/C=C/C(=O)OCCN1CCN(C(C)C)CC1` [Example 1c, (E)-But-2-enedioic acid methyl ester 2-(4-isopropyl-piperazin-1-yl) ethyl dihydrochloride], the “hydrolysis to MMF (MMF release, LC-MS) compared with DMF” value (shortened to “hydrolysis to MMF … compared with DMF”) is given as “significantly slower hydrolysis to MMF than DMF”. To `COC(=O)/C=C/C(=O)OCOP(=O)(OC(C)(C)C)OC(C)(C)C` [Example 4a, (E)-but-2-enedioic acid di-tert-butoxy-phosphoryloxymethyl ester methyl ester] belongs “significantly slower hydrolysis to MMF than DMF”; to `COC(=O)/C=C/C(=O)OCCN(CCOC(=O)/C=C/C(=O)OC)CCOC(=O)/C=C/C(=O)OC` [Example 2, tris-[2-(E)-3-methoxycarbonylacryloyloxy)-ethyl]amine hydrochloride], “significantly slower hydrolysis to MMF than DMF”. To `COC(=O)/C=C/C(=O)OCc1oc(=O)oc1C` [Example 6, (E)-but-2-enedioic acid methyl ester5-methyl-2-oxo-[1,3]dioxol-4-yl methyl ester] belongs “significantly slower hydrolysis to MMF than DMF”; to `COC(=O)/C=C/C(=O)OCCOC(=O)[C@@H](N)C(C)C` [Example 5a, (E)-but-2-enedioic acid 2-((S)-2-amino-3-methyl-butyrryloxy)-ethyl ester methyl ester hydrochloride], “significantly slower hydrolysis to MMF than DMF”; to `COC(=O)/C=C/C(=O)OCC(COC(=O)/C=C/C(=O)OC)OC(=O)/C=C/C(=O)OC` [Example 3, (E)-but-2-enedioic acid 2,3-bis-(-3-methoxycarbonyl-acryloyloxy)-propyl ester methyl ester], “significantly slower hydrolysis to MMF than DMF”.

As to `COC(=O)/C=C/C(=O)OCCN1CCS(=O)(=O)CC1` [Example 1a, (E)-But-2-enedioic acid 2-(1,1-dioxo-1-lambda*6*-thiomorpholin-4-yl)-ethyl ester methyl ester], the “hydrolysis to MMF … compared with DMF” value is listed as “significantly slower hydrolysis to MMF than DMF”. As for `COC(=O)/C=C/C(=O)OCCN1CC[S+]([O-])CC1` [Example 1a′, (E)-But-2-enedioic acid methyl ester 2-(1-oxo-1lambda*4*-thiomorpholin-4-yl)-ethyl ester], the “hydrolysis to MMF … compared with DMF” value was “significantly slower hydrolysis to MMF than DMF”. On to `COC(=O)/C=C/C(=O)OCCN1CCN(C)CC1` [Example 1b, (E)-But-2-enedioic acid methyl ester 2-(4-methyl-piperazin-1-yl) ethyl dihydrochloride], for which the “hydrolysis to MMF … compared with DMF” value is on record as “significantly slower hydrolysis to MMF than DMF”.
